Laboratory results from patent publication US20250230149A1, “MGLUR5 MODULATING COMPOUNDS, COMPOSITIONS, AND METHODS OF USE” (Allyx Therapeutics, Inc., priority 2022, published 2025).

Key:
Format in all cases: in vitro ADME
CYP2D6 [1] = molecular target: T1, CYP2D6 (Homo sapiens, UniProt P10635); test: Metabolism dependent inhibition in human liver microsomes, CYP2D6
T1 construct: purchased
From the text: (§1) In Vitro Metabolite Dependent Inhibition of CYP2D6 and CYP3A4 Study in Human Liver Microsomes
(§2) This study assessed the metabolism dependent inhibition potential of Compound 1 Form A toward CYP3A4 and CYP2D6 in human liver microsomes. Troleandomycin and paroxetine, known metabolism dependent inhibitors of CYP3A4 and CYP2D6, respectively were used as positive controls.

CYP2C9 = molecular target: T2, CYP2C9 (Homo sapiens, UniProt P11712); test: CYP inhibition in human liver microsomes, CYP2C9
T2 construct: purchased
From the text: (§3) In Vitro CYP Inhibition of CYP1A2, CYP2C8, CYP2C9, CYP2C19, CYP2D6 and CYP3A4 in Human Liver Microsomes This study assessed the potential inhibitory effect of Compound 1 Form A toward CYP1A2, CYP2C8, CYP2C9, CYP2C19, CYP2D6 and CYP3A4. Known inhibitors of each CYP were used as positive controls.

CYP1A2 [2] = molecular target: T3, CYP1A2 (Homo sapiens, UniProt P05177); test: CYP inhibition in human liver microsomes, CYP1A2
T3 construct: purchased
T3 sequence (P05177 1-516): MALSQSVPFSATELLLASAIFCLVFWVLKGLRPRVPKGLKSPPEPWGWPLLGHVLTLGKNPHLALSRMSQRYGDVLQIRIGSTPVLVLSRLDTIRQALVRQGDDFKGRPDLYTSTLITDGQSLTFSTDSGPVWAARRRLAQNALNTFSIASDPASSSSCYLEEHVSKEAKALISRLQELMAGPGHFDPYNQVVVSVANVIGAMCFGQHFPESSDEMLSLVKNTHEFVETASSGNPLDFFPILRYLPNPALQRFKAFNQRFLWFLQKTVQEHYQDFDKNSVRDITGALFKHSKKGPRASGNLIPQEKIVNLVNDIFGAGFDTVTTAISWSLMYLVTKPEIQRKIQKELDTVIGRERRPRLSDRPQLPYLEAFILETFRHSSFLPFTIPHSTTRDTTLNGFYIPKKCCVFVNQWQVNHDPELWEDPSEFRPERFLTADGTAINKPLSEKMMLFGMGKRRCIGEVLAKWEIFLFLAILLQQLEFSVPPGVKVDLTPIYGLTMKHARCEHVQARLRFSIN
From the text: as §3

CYP3A4 [3] = molecular target: T4, CYP3A4 (Homo sapiens, UniProt P08684); test: Metabolism dependent inhibition in human liver microsomes, CYP3A4
T4 construct: purchased
From the text: as §1, §2

CYP2D6 [4] = molecular target: T1, CYP2D6; test: CYP inhibition in human liver microsomes, CYP2D6
From the text: as §3

CYP2D6 [5] = molecular target: T1, CYP2D6; test: CYP450 reaction phenotyping in Supersomes, CYP2D6
From the text: (§4) In Vitro CYP450 Reaction Phenotyping Study in Supersomes™ Over-Expressing Human CYP Enzymes The CYPP450 enzymes involved in the Phase I metabolism of Compound 1 Form A were investigated in vitro. […] No evidence of Compound 1 metabolism by CYP2B6, CYP2C8, CYP2C9 and CYP2C19 was observed.

OATP1B1 = molecular target: T5, OATP1B1 (Homo sapiens, UniProt Q9Y6L6); test: In vitro inhibition of human transporter OATP1B1; details: in vitro cell test system; read-out: IC50, inhibition of probe substrate transport via OATP1B1
T5 construct: host or cells: unspecified cell test systems
Protocol: (§5) The in vitro potential for Compound 1 Form A to be an inhibitor of the human transporters P-glycoprotein (P-gp), […] (OATP) 1B1 and OATP1B3 was assessed in various in vitro cell test systems, and of BSEP in membrane vesicles.
(§6) A decrease in the transporter-mediated activity of probe substrate in the presence of a positive control inhibitor, determined from incubations run alongside test compound, confirmed that the in vitro test systems were capable of identifying transporter inhibitors.

CYP2C8 = molecular target: T6, CYP2C8 (Homo sapiens, UniProt P10632); test: CYP inhibition in human liver microsomes, CYP2C8
T6 construct: purchased
From the text: as §3

CYP1A2 [6] = molecular target: T3, CYP1A2; test: CYP450 reaction phenotyping in Supersomes, CYP1A2
From the text: as §4

P-glycoprotein (P-gp) = molecular target: T7, P-glycoprotein (P-gp) (Homo sapiens, UniProt P08183); test: In vitro inhibition of human transporter P-gp; details: in vitro cell test system; read-out: IC50, inhibition of probe substrate transport via P-gp
T7 construct: host or cells: unspecified cell test systems
Protocol: as §5, §6

BSEP = BSEP (Homo sapiens, UniProt O95342); test: In vitro inhibition of BSEP in membrane vesicles; details: read-out: IC50, inhibition of probe substrate transport via BSEP
Protocol: as §5, §6

CYP3A4 [7] = molecular target: T4, CYP3A4; test: CYP450 reaction phenotyping in Supersomes, CYP3A4
From the text: as §4

CYP2C19 = CYP2C19 (Homo sapiens, UniProt P33261); test: CYP inhibition in human liver microsomes, CYP2C19; set-up: CYP2D6 and CYP3A4 in Human Liver Microsomes; from tissue; host or cells: human liver microsomes
From the text: as §3

CYP3A4 [8] = molecular target: T4, CYP3A4; test: CYP inhibition in human liver microsomes, CYP3A4
From the text: as §3

OATP1B3 = molecular target: T8, OATP1B3 (Homo sapiens, UniProt Q9NPD5); test: In vitro inhibition of human transporter OATP1B3; details: in vitro cell test system; read-out: IC50, inhibition of probe substrate transport via OATP1B3
T8 construct: host or cells: unspecified cell test systems
Protocol: as §5, §6

T4 sequence (P08684 whole entry): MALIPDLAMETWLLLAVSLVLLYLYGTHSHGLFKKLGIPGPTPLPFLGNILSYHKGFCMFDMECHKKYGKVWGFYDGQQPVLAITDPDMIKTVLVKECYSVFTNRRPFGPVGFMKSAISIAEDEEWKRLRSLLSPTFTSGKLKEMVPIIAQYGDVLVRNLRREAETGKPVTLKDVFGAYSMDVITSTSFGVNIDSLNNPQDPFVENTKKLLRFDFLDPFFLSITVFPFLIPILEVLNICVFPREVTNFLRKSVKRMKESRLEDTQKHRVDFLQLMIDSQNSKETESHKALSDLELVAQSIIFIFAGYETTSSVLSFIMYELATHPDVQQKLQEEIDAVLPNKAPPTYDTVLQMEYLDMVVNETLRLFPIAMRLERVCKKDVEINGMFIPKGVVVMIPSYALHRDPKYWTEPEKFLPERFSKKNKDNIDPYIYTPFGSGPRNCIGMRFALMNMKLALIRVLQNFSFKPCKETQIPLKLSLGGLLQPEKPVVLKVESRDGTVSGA
T1 sequence (P10635 whole entry): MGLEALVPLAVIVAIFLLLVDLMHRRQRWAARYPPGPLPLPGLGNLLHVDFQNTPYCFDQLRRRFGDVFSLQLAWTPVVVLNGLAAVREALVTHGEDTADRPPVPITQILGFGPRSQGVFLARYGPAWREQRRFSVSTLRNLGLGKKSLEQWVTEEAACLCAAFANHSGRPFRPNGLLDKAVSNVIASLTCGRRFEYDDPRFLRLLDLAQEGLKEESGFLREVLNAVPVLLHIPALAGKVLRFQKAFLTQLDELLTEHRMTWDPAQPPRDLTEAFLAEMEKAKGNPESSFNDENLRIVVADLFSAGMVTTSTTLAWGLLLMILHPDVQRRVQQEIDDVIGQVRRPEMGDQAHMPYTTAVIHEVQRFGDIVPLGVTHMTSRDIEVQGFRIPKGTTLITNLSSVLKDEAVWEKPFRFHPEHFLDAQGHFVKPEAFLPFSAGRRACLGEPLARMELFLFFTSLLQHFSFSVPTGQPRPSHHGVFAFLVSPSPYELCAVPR
Chain of CYP2C19 (P33261 whole entry): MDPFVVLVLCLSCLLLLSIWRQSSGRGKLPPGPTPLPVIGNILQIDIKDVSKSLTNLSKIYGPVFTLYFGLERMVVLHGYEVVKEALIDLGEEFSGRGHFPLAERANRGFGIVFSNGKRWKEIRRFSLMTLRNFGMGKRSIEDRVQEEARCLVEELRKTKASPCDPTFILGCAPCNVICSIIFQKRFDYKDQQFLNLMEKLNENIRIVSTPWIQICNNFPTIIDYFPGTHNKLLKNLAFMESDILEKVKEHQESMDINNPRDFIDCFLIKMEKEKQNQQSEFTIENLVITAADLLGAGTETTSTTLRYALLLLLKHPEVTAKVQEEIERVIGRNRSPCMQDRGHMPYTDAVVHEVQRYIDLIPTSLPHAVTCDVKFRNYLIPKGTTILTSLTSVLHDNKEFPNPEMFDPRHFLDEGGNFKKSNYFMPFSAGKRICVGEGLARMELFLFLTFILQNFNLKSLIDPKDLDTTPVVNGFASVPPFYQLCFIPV
T2 sequence (P11712 whole entry): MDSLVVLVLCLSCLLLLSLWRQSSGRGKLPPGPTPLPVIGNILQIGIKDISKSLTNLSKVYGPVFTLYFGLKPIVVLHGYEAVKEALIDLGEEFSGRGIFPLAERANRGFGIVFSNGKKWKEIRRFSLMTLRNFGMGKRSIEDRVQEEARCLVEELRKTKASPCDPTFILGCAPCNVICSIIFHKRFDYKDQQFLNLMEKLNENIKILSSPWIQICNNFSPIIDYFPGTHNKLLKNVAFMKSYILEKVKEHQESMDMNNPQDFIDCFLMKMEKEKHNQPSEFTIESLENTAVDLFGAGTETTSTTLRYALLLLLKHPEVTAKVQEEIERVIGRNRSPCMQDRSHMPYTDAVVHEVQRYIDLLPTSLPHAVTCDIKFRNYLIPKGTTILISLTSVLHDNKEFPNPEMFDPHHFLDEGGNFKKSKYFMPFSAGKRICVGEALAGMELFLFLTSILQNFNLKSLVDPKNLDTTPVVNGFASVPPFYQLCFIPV
T7 sequence (P08183 whole entry): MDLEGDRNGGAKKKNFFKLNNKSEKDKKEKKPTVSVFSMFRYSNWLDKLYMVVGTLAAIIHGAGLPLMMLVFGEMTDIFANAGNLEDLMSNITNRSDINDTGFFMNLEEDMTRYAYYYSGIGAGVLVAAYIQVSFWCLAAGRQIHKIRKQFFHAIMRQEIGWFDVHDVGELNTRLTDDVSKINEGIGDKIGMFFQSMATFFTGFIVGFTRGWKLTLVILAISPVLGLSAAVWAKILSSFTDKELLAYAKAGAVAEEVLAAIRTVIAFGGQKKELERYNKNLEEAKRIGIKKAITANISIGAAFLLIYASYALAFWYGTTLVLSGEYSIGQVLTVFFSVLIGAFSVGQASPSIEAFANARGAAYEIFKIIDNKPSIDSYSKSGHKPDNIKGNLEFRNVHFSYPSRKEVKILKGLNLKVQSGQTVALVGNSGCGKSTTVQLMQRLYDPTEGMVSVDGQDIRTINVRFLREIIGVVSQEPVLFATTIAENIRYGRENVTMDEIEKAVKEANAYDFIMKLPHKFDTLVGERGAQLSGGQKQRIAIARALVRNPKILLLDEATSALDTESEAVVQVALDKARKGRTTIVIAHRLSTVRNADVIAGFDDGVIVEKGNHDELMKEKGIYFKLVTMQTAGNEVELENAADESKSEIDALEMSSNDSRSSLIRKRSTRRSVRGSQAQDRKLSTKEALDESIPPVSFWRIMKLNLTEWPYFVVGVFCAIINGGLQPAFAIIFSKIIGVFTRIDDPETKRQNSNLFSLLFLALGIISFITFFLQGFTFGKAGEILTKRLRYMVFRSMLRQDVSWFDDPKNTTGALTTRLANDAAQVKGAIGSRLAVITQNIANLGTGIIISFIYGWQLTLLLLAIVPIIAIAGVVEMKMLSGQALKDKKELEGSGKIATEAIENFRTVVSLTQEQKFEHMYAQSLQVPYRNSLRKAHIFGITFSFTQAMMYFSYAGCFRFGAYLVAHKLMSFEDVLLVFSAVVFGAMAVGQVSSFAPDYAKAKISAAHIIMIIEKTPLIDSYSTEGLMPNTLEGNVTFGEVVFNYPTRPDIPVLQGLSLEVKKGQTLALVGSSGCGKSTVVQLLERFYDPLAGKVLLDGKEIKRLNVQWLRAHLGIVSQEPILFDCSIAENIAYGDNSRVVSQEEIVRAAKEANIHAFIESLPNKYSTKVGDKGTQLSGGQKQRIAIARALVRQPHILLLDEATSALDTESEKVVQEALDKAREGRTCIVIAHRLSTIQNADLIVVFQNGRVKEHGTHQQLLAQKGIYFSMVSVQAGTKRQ
Chain of BSEP (O95342 whole entry): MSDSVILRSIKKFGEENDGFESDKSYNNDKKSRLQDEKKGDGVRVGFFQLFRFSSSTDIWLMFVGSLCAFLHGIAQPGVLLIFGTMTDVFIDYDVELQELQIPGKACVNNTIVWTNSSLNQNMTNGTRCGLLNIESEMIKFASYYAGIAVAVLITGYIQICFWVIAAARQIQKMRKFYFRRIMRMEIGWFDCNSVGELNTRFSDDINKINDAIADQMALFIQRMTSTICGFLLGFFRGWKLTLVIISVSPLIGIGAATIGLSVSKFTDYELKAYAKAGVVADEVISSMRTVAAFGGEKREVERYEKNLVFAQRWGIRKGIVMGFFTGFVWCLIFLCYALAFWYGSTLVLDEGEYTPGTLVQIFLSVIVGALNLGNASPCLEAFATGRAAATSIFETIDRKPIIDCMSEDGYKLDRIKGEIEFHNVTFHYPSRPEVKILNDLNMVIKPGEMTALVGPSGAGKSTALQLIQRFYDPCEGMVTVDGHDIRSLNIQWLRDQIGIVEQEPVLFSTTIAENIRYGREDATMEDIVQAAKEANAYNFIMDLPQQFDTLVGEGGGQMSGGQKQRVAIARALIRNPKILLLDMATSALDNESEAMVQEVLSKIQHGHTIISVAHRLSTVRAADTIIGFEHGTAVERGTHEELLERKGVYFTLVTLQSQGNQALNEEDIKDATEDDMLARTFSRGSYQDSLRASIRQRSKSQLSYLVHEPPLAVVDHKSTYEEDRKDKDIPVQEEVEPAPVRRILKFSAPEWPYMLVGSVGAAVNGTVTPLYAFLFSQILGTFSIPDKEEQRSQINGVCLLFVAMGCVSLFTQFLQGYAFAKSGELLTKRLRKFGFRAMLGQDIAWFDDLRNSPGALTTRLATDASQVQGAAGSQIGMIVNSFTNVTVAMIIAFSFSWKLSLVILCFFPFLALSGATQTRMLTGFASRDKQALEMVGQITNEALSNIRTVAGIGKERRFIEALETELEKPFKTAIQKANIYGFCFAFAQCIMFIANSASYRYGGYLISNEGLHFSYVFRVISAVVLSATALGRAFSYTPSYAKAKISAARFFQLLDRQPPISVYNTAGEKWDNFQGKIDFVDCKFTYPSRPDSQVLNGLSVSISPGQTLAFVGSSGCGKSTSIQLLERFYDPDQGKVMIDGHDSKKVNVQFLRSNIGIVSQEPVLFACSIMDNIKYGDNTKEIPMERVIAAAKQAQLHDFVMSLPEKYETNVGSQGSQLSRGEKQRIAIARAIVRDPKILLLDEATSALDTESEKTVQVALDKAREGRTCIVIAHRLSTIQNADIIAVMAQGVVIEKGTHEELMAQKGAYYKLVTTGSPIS
T6 sequence (P10632 whole entry): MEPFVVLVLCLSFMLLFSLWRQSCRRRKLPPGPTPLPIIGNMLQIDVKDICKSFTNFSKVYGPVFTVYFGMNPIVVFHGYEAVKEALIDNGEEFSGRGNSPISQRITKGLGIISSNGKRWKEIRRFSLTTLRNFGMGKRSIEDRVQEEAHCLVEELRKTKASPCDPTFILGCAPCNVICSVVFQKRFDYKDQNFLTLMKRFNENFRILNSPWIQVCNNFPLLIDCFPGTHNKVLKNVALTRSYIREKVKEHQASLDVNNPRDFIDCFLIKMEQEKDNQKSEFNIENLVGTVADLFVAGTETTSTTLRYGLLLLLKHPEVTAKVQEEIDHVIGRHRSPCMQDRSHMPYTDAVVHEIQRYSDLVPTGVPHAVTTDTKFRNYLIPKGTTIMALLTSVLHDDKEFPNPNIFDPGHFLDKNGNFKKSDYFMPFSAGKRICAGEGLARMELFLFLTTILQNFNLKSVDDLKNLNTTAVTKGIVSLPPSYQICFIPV

O=C1N[C@H](c2cncc(C#Cc3ccccc3)c2)[C@@H](c2ccccc2Cl)O1 [Compound 1 Form A, (4R,5R)-5-(2-chlorophenyl)-4-(5-(phenylethynyl)pyridin-3-yl)oxazolidin-2-one]
metabolism dependent inhibition of CYP2D6 (CYP2D6 [1]): not a metabolism dependent inhibitor
IC50 (CYP2C9): 12.4 µM
IC50 (CYP1A2 [2]): 1.95 µM
metabolism dependent inhibition of CYP3A4 (CYP3A4 [3]): not a metabolism dependent inhibitor
inhibition of CYP2D6 (CYP2D6 [4]): no inhibition
predicted contribution to total metabolism (CYP2D6 [5]; CYP2D6, relative activity of factors method): 18%
CLint (CYP2D6 [5]; Supersomes, CYP2D6): 0.984 μL/min/pmol CYP
half-life (CYP2D6 [5]; human, Supersomes over-expressing human CYP2D6, Supersomes, CYP2D6): 0.233 h
IC50 (OATP1B1): 6.74 µM
IC50 (CYP2C8): 52.1 µM
predicted contribution to total metabolism (CYP1A2 [6]; CYP1A2, relative activity of factors method): 43.1%
CLint (CYP1A2 [6]; Supersomes, CYP1A2): 0.261 μL/min/pmol CYP
half-life (CYP1A2 [6]; human, Supersomes over-expressing human CYP1A2, Supersomes, CYP1A2): 1.07 h
IC50 (P-glycoprotein (P-gp)): 27.7 µM
IC50 (BSEP): 13.9 µM
predicted contribution to total metabolism (CYP3A4 [7]; CYP3A4, relative activity of factors method): 38.9%
CLint (CYP3A4 [7]; Supersomes, CYP3A4): 0.0786 μL/min/pmol CYP
half-life (CYP3A4 [7]; human, Supersomes over-expressing human CYP3A4, Supersomes, CYP3A4): 2.93 h
IC50 (CYP2C19): 6.17 µM
IC50 (CYP3A4 [8]; atorvastatin only): 55.7 µM
inhibition of CYP3A4 (CYP3A4 [8]; midazolam as substrate): no inhibition
inhibition of CYP3A4 (CYP3A4 [8]; nifedipine as substrate): no inhibition
IC50 (OATP1B3): 32 µM
